Test results reported in PubChem BioAssay (NCI).
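Tested at 5 concentrations; 48 h exposure; 96-well plates; endpoints linearly interpolated, else capped at highest concentration. GI50 = concentration required for 50% inhibition of growth. TGI denotes the concentration required for complete inhibition of growth.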

Tests used:
Assay in all cases: NCI-60 cell line screen, 48 h
HOP-62 NSCLC = tested on: HOP-62 NSCLC
K-562 leukemia = tested on: K-562 leukemia
HS 578T breast = tested on: HS 578T breast
NCI-H226 lung = tested on: NCI-H226 lung
ACHN renal = tested on: ACHN renal
COLO 205 colon = tested on: COLO 205 colon
SK-MEL-28 melanoma = tested on: SK-MEL-28 melanoma
MALME-3M melanoma = tested on: MALME-3M melanoma
U251 CNS = tested on: U251 CNS
NCI-H460 lung = tested on: NCI-H460 lung
OVCAR-8 ovarian = tested on: OVCAR-8 ovarian
A498 renal = tested on: A498 renal
SNB-19 CNS = tested on: SNB-19 CNS
KM12 colon = tested on: KM12 colon
UACC-62 melanoma = tested on: UACC-62 melanoma
IGROV1 ovarian = tested on: IGROV1 ovarian
MOLT-4 leukemia = tested on: MOLT-4 leukemia
EKVX NSCLC = tested on: EKVX NSCLC
CAKI-1 renal = tested on: CAKI-1 renal
NCI/ADR-RES ovarian = tested on: NCI/ADR-RES ovarian
LOX IMVI melanoma = tested on: LOX IMVI melanoma
OVCAR-4 ovarian = tested on: OVCAR-4 ovarian
NCI-H522 lung = tested on: NCI-H522 lung
RPMI-8226 leukemia = tested on: RPMI-8226 leukemia
MCF7 breast = tested on: MCF7 breast
HT29 colon = tested on: HT29 colon
UO-31 renal = tested on: UO-31 renal
HOP-92 NSCLC = tested on: HOP-92 NSCLC
T-47D breast = tested on: T-47D breast
SF-539 CNS = tested on: SF-539 CNS
SF-268 CNS = tested on: SF-268 CNS
MDA-MB-231 breast = tested on: MDA-MB-231 breast
BT-549 breast = tested on: BT-549 breast
M14 melanoma = tested on: M14 melanoma
DU-145 prostate = tested on: DU-145 prostate
SK-OV-3 ovarian = tested on: SK-OV-3 ovarian
SW-620 colon = tested on: SW-620 colon
A549 NSCLC = tested on: A549 NSCLC
OVCAR-3 ovarian = tested on: OVCAR-3 ovarian
PC-3 prostate = tested on: PC-3 prostate
SK-MEL-5 melanoma = tested on: SK-MEL-5 melanoma
UACC-257 melanoma = tested on: UACC-257 melanoma
CCRF-CEM leukemia = tested on: CCRF-CEM leukemia
NCI-H23 lung = tested on: NCI-H23 lung
SR leukemia = tested on: SR leukemia
OVCAR-5 ovarian = tested on: OVCAR-5 ovarian
SN12C renal = tested on: SN12C renal
TK-10 renal = tested on: TK-10 renal
HCT-116 colon = tested on: HCT-116 colon
SF-295 CNS = tested on: SF-295 CNS
786-0 renal = tested on: 786-0 renal
HL-60(TB) leukemia = tested on: HL-60(TB) leukemia
SNB-75 CNS = tested on: SNB-75 CNS
HCT-15 colon = tested on: HCT-15 colon
MDA-MB-435 = tested on: MDA-MB-435
SK-MEL-2 melanoma = tested on: SK-MEL-2 melanoma

COc1ccc(N2CCN(C(=O)c3ccc(C(F)(F)F)nc3Nc3cc(Cl)ccc3C)CC2)cc1
GI50 (HOP-62 NSCLC): 13.2 µM | TGI (HOP-62 NSCLC): 25.9 µM | GI50 (K-562 leukemia): 4.76 µM | TGI (K-562 leukemia): 22.8 µM | GI50 (HS 578T breast): 4.09 µM | TGI (HS 578T breast): 22.1 µM | GI50 (NCI-H226 lung): 14.3 µM | TGI (NCI-H226 lung): 36.3 µM | GI50 (ACHN renal): 7.78 µM | TGI (ACHN renal): 31.1 µM | GI50 (COLO 205 colon): 11.4 µM | TGI (COLO 205 colon): 26.2 µM | GI50 (SK-MEL-28 melanoma): 14 µM | TGI (SK-MEL-28 melanoma): 30.3 µM | GI50 (MALME-3M melanoma): 10.6 µM | TGI (MALME-3M melanoma): 28.4 µM | GI50 (U251 CNS): 9.37 µM | TGI (U251 CNS): 21.2 µM | GI50 (NCI-H460 lung): 6.11 µM | TGI (NCI-H460 lung): 21 µM | GI50 (OVCAR-8 ovarian): 11.3 µM | TGI (OVCAR-8 ovarian): 38.7 µM | GI50 (A498 renal): 6.01 µM | TGI (A498 renal): 19.8 µM | GI50 (SNB-19 CNS): 9.17 µM | TGI (SNB-19 CNS): 22.5 µM | GI50 (KM12 colon): 6.91 µM | TGI (KM12 colon): 20.8 µM | GI50 (UACC-62 melanoma): 8.15 µM | TGI (UACC-62 melanoma): 20.8 µM | GI50 (IGROV1 ovarian): 0.0509 µM | TGI (IGROV1 ovarian): 20.3 µM | GI50 (MOLT-4 leukemia): 4.49 µM | TGI (MOLT-4 leukemia): 29.6 µM | GI50 (EKVX NSCLC): 2.67 µM | TGI (EKVX NSCLC): 21.1 µM | GI50 (CAKI-1 renal): 1.38 µM | TGI (CAKI-1 renal): 8.36 µM | GI50 (NCI/ADR-RES ovarian): 10.1 µM | TGI (NCI/ADR-RES ovarian): 27.3 µM | GI50 (LOX IMVI melanoma): 10.4 µM | TGI (LOX IMVI melanoma): 22.1 µM | GI50 (OVCAR-4 ovarian): 7.83 µM | TGI (OVCAR-4 ovarian): 29.9 µM | GI50 (NCI-H522 lung): 3.38 µM | TGI (NCI-H522 lung): 22.3 µM | GI50 (RPMI-8226 leukemia): 7.46 µM | TGI (RPMI-8226 leukemia): 49.2 µM | GI50 (MCF7 breast): 2.88 µM | TGI (MCF7 breast): 21 µM | GI50 (HT29 colon): 4.45 µM | TGI (HT29 colon): 18 µM | GI50 (UO-31 renal): 1.69 µM | TGI (UO-31 renal): 10.9 µM | GI50 (HOP-92 NSCLC): 1.49 µM | TGI (HOP-92 NSCLC): 7.97 µM | GI50 (T-47D breast): 2.8 µM | TGI (T-47D breast): 26.2 µM | GI50 (SF-539 CNS): 10.7 µM | TGI (SF-539 CNS): 24.7 µM | GI50 (SF-268 CNS): 7.04 µM | TGI (SF-268 CNS): 22.4 µM | GI50 (MDA-MB-231 breast): 4.09 µM | TGI (MDA-MB-231 breast): 15.6 µM | GI50 (BT-549 breast): 10.2 µM | TGI (BT-549 breast): 23.7 µM | GI50 (M14 melanoma): 10.6 µM | TGI (M14 melanoma): 22.6 µM | GI50 (DU-145 prostate): 14.7 µM | TGI (DU-145 prostate): 31 µM | GI50 (SK-OV-3 ovarian): 4.67 µM | TGI (SK-OV-3 ovarian): 22.1 µM | GI50 (SW-620 colon): 10.5 µM | TGI (SW-620 colon): 22.4 µM | GI50 (A549 NSCLC): 10.2 µM | TGI (A549 NSCLC): 27.7 µM | GI50 (OVCAR-3 ovarian): 2.98 µM | TGI (OVCAR-3 ovarian): 19 µM | GI50 (PC-3 prostate): 5.44 µM | TGI (PC-3 prostate): 32.7 µM | GI50 (SK-MEL-5 melanoma): 8.02 µM | TGI (SK-MEL-5 melanoma): 20.8 µM | GI50 (UACC-257 melanoma): 10.7 µM | TGI (UACC-257 melanoma): 28.3 µM | GI50 (CCRF-CEM leukemia): 8.79 µM | TGI (CCRF-CEM leukemia): 38.5 µM | GI50 (NCI-H23 lung): 9.12 µM | TGI (NCI-H23 lung): 23.9 µM | GI50 (SR leukemia): 4.65 µM | TGI (SR leukemia): 39 µM | GI50 (OVCAR-5 ovarian): 10.6 µM | TGI (OVCAR-5 ovarian): 25.1 µM | GI50 (SN12C renal): 11.8 µM | TGI (SN12C renal): 24.4 µM | GI50 (TK-10 renal): 15 µM | TGI (TK-10 renal): 34.6 µM | GI50 (HCT-116 colon): 6.38 µM | TGI (HCT-116 colon): 19 µM | GI50 (SF-295 CNS): 9.78 µM | TGI (SF-295 CNS): 27.9 µM | GI50 (786-0 renal): 4.47 µM | TGI (786-0 renal): 16.8 µM | GI50 (HL-60(TB) leukemia): 6.94 µM | TGI (HL-60(TB) leukemia): 28.6 µM | GI50 (SNB-75 CNS): 3.66 µM | TGI (SNB-75 CNS): 22.6 µM | GI50 (HCT-15 colon): 7.71 µM | TGI (HCT-15 colon): 21.2 µM | GI50 (MDA-MB-435): 11.2 µM | TGI (MDA-MB-435): 27.5 µM | GI50 (SK-MEL-2 melanoma): 0.949 µM | TGI (SK-MEL-2 melanoma): 19 µM
